Entries after “also recorded” stand apart in the source; their conditions may differ.
How the values were obtained:
[1] = test system: rat ventricular cardiomyocytes; assay: Nitric oxide (NO) measurement, DAF fluorescence in cardiomyocytes; type: cell-based
[2] = target: T1, ATP-dependent potassium current (IKATP) (Rattus norvegicus, UniProt P70673+Q63563); assay: Glibenclamide-sensitive K+ current (IKATP), voltage clamp; type: cell-based
T1 construct: endogenous in cells; host or cells: isolated adult rat ventricular cardiomyocytes
T1 sequence (P70673 whole entry): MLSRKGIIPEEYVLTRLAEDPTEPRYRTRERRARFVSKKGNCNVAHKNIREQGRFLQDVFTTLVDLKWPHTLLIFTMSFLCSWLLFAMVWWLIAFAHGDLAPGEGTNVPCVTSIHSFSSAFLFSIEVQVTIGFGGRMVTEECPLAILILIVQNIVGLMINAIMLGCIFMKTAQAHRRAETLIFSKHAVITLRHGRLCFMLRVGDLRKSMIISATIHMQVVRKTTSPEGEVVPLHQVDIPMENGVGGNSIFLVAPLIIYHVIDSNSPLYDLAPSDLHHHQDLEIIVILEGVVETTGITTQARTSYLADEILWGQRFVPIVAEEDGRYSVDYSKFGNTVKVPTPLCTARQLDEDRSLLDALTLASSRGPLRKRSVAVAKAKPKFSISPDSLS
T1 sequence (Q63563 whole entry): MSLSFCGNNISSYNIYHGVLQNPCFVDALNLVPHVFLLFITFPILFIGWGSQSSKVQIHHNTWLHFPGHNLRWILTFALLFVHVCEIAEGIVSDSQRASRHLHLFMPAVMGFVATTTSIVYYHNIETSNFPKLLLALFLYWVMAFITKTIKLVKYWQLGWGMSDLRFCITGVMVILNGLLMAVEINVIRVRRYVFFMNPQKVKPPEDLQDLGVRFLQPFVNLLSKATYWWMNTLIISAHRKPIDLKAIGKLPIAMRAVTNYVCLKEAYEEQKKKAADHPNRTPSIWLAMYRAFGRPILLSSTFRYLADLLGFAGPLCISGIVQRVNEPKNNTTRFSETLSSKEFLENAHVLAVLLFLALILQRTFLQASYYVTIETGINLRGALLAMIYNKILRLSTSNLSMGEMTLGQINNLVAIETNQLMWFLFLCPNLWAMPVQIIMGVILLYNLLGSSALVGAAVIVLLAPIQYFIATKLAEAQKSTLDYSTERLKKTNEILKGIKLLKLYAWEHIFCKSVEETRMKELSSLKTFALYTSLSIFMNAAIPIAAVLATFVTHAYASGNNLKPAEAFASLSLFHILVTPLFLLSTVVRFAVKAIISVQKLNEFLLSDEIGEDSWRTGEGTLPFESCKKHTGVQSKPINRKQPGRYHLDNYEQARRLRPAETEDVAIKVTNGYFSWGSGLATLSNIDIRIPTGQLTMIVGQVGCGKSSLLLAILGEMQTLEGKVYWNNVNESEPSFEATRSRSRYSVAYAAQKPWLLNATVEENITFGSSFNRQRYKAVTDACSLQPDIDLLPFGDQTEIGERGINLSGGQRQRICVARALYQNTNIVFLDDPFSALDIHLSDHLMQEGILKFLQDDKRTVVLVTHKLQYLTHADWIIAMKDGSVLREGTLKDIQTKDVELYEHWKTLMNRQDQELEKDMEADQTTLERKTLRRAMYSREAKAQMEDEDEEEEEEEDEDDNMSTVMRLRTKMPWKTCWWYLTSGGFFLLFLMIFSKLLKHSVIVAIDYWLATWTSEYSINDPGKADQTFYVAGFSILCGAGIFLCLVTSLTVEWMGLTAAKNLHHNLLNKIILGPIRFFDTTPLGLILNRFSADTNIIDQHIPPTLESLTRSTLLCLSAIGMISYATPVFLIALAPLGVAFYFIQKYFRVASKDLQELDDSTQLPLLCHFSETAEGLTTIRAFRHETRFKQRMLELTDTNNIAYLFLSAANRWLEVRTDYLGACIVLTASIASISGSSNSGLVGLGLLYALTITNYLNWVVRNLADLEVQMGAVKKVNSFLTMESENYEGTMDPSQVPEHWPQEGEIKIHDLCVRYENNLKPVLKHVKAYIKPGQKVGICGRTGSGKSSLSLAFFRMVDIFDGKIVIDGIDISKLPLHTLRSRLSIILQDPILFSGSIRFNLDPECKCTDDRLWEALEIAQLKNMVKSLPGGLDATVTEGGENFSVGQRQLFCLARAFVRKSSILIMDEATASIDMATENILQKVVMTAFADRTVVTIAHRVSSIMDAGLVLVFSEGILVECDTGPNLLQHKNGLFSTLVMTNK

[3] = test system: rat ventricular cardiomyocytes; assay: Ca2+ transient and cell shortening (sarcomere length, indo-1) under field stimulation; type: cell-based; details: co-incubation; for effect on reduction of cell shortening and Ca2+ transient amplitude induced by N-Shh: Ccl 30 μM, LY 25 μM, L-NNA 100 μM
[4] = test system: rat ventricular cardiomyocytes; assay: Action potential recording, whole-cell patch clamp; type: cell-based; details: for effect on APD reduction induced by N-Shh: glibenclamide 1 μM acute, L-NNA, ODQ
Experimental: Whole-cell patch-clamp experiments were performed at room temperature (22-24° C.) with an Axopatch 200B (Axon instrument, Burlingham, Calif., USA). Patch pipettes had resistance of 2 MΩ. Currents were normalized to the cell membrane capacitance (pA/pF). Series resistances were compensated before recordings.
To record APs, pipettes solution contained (in mM): KCl (130), HEPES (25), ATP(Mg) (3), GTP(Na) (0.4), EGTA (0.5); pH 7.2 (KOH). Bathing solution contained (in mmol/L): NaCl (135), MgCl2 (1), KCl (4), Glucose (11), HEPES (2), CaCl2 (1.8); pH 7.4 (NaOH). APs were elicited by 0.2 ms current injection of supra-threshold intensity. During experiments, cells were stimulated by trains of 30 stimuli at 0.5 Hz.

rats = assay: Telemetric ECG, QTc interval before and 6 hours after i.v. injection; type: in vivo, rat; details: given with Shh
Experimental: (§1) Rats were implanted with DSI PhysioTel™ Transmitter (CTA-F40, Data Sciences International, Saint-Paul, Minn., USA), fifteen days before starting experiments. After recovery, ECGs were recorded by using a signal transmitter-receiver (RPC-1; DSI) connected to a data acquisition system (IOX2; EMKA Technologies). The data were collected continuously at a sampling rate of 1,000 Hz. Thus, ECGs were recorded in rats before and 6 hours after i.v. injection of Shh, Shh and hexamethonium, MPs, Shh and cyclopamine, Shh and glibenclamide. ECGs were also monitored 24 h before ischemia, during ischemia and 24 h after reperfusion. Continuous digital recordings were analyzed offline by using the software ECG-auto (ver 1.5.12.22, EMKA Technologies). ECG signals were digitally filtered between 0.1 and 1,000 Hz. The heart rate and QT interval were measured. The QT interval was defined as the time between the first deviation from an isoelectric PR interval until the return of the ventricular repolarisation to the isoelectric TP baseline from lead II ECGs. The QT interval is dependent on the heart rate, therefore, QT interval should be corrected to take into account potential changes in RR interval. The QT correction was performed according to the Bazett's: formula: […]
where QTB is the QT interval corrected for heart rate, and RR is the interval from the onset of one QRS complex to the onset of the next QRS complex.

[5] = test system: rat model of ischemia reperfusion; assay: Left ventricular fibrosis, Masson trichrome histology 24 h after reperfusion; type: in vivo
Experimental: Thin sections (5 μm) were prepared from the rat left ventricles and stained with Haematoxylin-Eosin (HE) and Masson trichrome (MT) for light microscopy (10×). The thickening of the myocardium was estimated on the HE-stained heart sections, and the presence of collagen was analyzed on the MT-stained ventricle sections.

[6] = test system: rat model of ischemia reperfusion; assay: Infarct size (infarcted area relative to area at risk) 24 h after reperfusion; type: in vivo; details: cyclopamine with N-Shh
Experimental: The rats were subjected to 30 min ischemia followed by reperfusion. The reperfusion injuries were histologically evaluated at 24 h after reperfusion by measuring the infarcted area relative to the area at risk (FIG. 9). Fifteen minutes prior to reperfusion, one group of rats received intravenous (iv) injection of the recombinant Shh homolog ligand (N-ShhH, 25 μg·kg^−1), the second group received N-Shh and the Shh receptor (patch/smoothened) antagonist cyclopamine (N-Shh+Ccl, 30 μmol/L) and the third one the vehicle (control). […] Considering that the cardio-protective effects are observed within a short time after reperfusion (i.e. <24 h), it is unlikely that they are mediated by a neoangiogenesis and/or mobilization of progenitor cells (Kusano K F, Pola R, Murayama T, Curry C, Kawamoto A, Iwakura A, Shintani S, Ii M, Asai J, Tkebuchava T, Thorne T, Takenaka H, Aikawa R, Goukassian D, von Samson P, Hamada H, Yoon Y S, Silver M, Eaton E, Ma H, Heyd L, Kearney M, Munger W, Porter J A, Kishore R and Losordo D W. Sonic hedgehog myocardial gene therapy: tissue repair through transient reconstitution of embryonic signaling. Nat Med. 2005; 11:1197-204. […]

[7] = test system: rat model of ischemia reperfusion; assay: ECG (QTc, ventricular arrhythmias) after 30 min ischemia and 24 h reperfusion; type: in vivo
Experimental: as §1, with “ECGs.” for “ECGs. The QT interval is dependent on the heart rate, therefore, QT interval should be corrected to take into account potential changes in RR interval. The QT correction was performed according to the Bazett's: formula:”
The rats were subjected to 30 min ischemia followed by reperfusion. The reperfusion injuries were histologically evaluated at 24 h after reperfusion by measuring the infarcted area relative to the area at risk (FIG. 9). […]

SMILES | effect on IKATP elicited by N-Shh [2] | effect on reduction of cell shortening and Ca2+ transient amplitude induced by N-Shh [3] | effect on APD reduction induced by N-Shh [4] | effect on the reduction in QTc interval after Shh injection (rats) | further results
N=C(NCCC[C@H](N)C(=O)O)N[N+](=O)[O-] [L-NNA, N^ω-nitro-L-arginine] | blocked | fully abolished | blunted | – | effect on N-Shh-induced NO production ([1]; co-incubation with N-Shh, L-NNA 100 μM, LY 25 μM): prevented
C[N+](C)(C)CCCCCC[N+](C)(C)C [hexamethonium] | – | – | – | identical | –
O=c1onc2cnc3ccccc3n12 [ODQ, 1H-[1.2.4]oxadiazolo[4.3-a]quinoxalin-1-one] | blocked | – | blunted | – | –
CC1=C2C[C@H]3[C@@H](CC=C4C[C@@H](O)CC[C@@]43C)[C@@H]2CC[C@]12O[C@@H]1C[C@H](C)CN[C@H]1[C@H]2C [cyclopamine] | – | fully abolished | – | prevented | effect on Shh prevention of fibrosis [5]: abolished; NO production (DAF fluorescence) vs control ([1]; cardiomyocytes incubated 4 h): no effect; effect on NO production induced by Shh-harboring MPs ([1]; pre-/co-incubation, cyclopamine 30 μM): prevented; effect on cardioprotective (infarct-reducing) effect of N-Shh [6]: fully abolished; also recorded: fully prevented; effect on N-Shh prevention of QTc enlargement ([7]; cyclopamine injected in addition to N-Shh): No beneficial effect; also recorded: abolished; effect on Shh reduction of ventricular arrhythmic events ([7]; cyclopamine with N-Shh): abolished; effect on reduction of cell shortening and Ca2+ transient induced by shed membrane MPs ([3]; cyclopamine 30 μM): blocked
COc1ccc(Cl)cc1C(=O)NCCc1ccc(S(=O)(=O)NC(=O)NC2CCCCC2)cc1 [glibenclamide] | – | – | prevented | prevented | effect on APD in the absence of N-Shh treatment ([4]; acute application): no effect

— patent US9987327B2, “Methods for treating myocardial infarction comprising administering sonic hedgehog” (INSERM (INSTITUT NATIONAL DE LA SANTE ET DE EA RECHERCHE …, priority 2013, dated 2018)
